{
  "source": "patent US20260209175A1",
  "about": "“PHARMACEUTICALLY ACCEPTABLE 5-METHOXY-N,N-DIMETHYL[…] AND COMPOSITIONS THEREOF” (priority 2022, published 2026)",
  "key": {"[1]": {"assay": "Thermo-Gravimetric Analysis (TGA), thermal stability", "assay_type": "physicochemical", "conditions": "10° C./min ramp; for thermally stable up to (TGA): nitrogen", "method": "TGA thermograms were obtained with a TA Instrument Discovery 550 in Al pans. The heating rate used was 10° C./min linear ramp from 25 to 400° C. with a nitrogen purging at a rate of 60 ml/min. TGA thermograms were analysed using TRIOS software."}, "[2]": {"assay": "Dissolution rate in simulated nasal fluid (UV-fiber optic dissolution apparatus)", "assay_type": "physicochemical", "conditions": "5 mg in 5 mL simulated nasal fluid, 37° C., 150 RPM", "description": "The dissolution rate was determined using a method comprising the use of a UV-fiber optic-based dissolution apparatus (one such suitable device is the Rainbow® Dynamic Dissolution Monitor by Pion Inc) and simulated nasal fluid. The simulated nasal fluid comprises 7.45 g/L NaCl, 1.29 g/L KCl, 0.32 g/L CaCl2×2H2O and deionised water.\nThe dissolution apparatus was set up with a 2 mm probe to measure the dissolution rate. 5 mg of the salt form was transferred into 5 mL of simulated nasal fluid, heated to a constant temperature of 37° C. and stirred at 150 RPM using a crossed stirrer bar. Measurements were taken at 3 s intervals for 130 intervals followed by 60 measurements taken at 10 s intervals for a total time of 16 minutes and 30 s. Detection of dissolution is by UV absorbance."}, "[3]": {"assay_type": "physicochemical", "conditions": "40° C./75% RH, three days", "description": "Salt screening studies with 24 selected counter-ions were performed to determine if 5-MeO-DMT free base is amenable to salt formation. […] Salts were examined by XRPD, TGA, DSC, 1H NMR and some by DVS analyses. Short term physical stability was examined by storage of salts at 40° C./75% RH for three days.\nPhysical stability stress tests were conducted on generated crystalline salts at controlled temperature and relative humidity. The powder samples were stored at 40° C./75% RH for three days. After this time samples were analysed by XRPD to see whether the physical state of salts changed during the storage."}, "[4]": {"assay": "Dynamic Vapor Sorption (DVS) analysis of salts, with XRPD of the post-DVS sample", "assay_type": "physicochemical", "description": "XRPD diffractograms were acquired using Bruker D2 Phaser diffractometer equipped with LYNXEYE detector. Samples were prepared using a zero-background sample holder. The samples were scanned from 5 to 32° (2θ) using a step size of 0.02° and a time per step of 0.13 second whilst spinning the sample. Diffractograms were plotted using the EVA program from Bruker.\nDVS analyses were performed on TA Instrument DVS Q5000. Samples were added to a pre-tared metallised quartz crucible and run at 25° C. from 40% RH to 90% RH, down to zero and back to 40%. This cycle was repeated in increments of 10% RH."}, "[5]": {"assay": "Solubility assessments in four different media", "assay_type": "physicochemical", "conditions": "for pH after addition of 1 ml media at 37° C. / Observation / pH after addition of 1.5 ml media at 37° C.: 250 mg per vial; for solubility relative to other salts: comparison of the salt forms", "description": "Solubility assessments of 5-MeO-DMT oxalate, hydrobromide fumarate and benzoate were performed in four different media: […]"}, "[6]": {"assay": "Oxalate salt solubility by HPLC", "assay_type": "physicochemical", "conditions": "pH 1.2 medium, simulated gastric fluid, thermodynamic from solid, mother liquors adjusted to the desired pH, read-out: Solubility (mg/mL) of free base", "description": "The benzoate salt has a solubility of, at least, 100 mg/ml. The calibration curve of the free base was prepared between 0.031-0.500 mg/ml and can be seen in FIG. 172.\nMother liquors were adjusted to the desired pH before HPLC quantification."}, "[7]": {"conditions": "salt screen / scale-up batches, DVS at 25° C"}},
  "note": "Structures can show the parent of a compound that is named as a salt. Where two headings read alike, the source gives them in different places.",
  "data": [
    {"compound": "Br.COc1ccc2[nH]cc(CCN(C)C)c2c1", "note": "[Hydrobromide salt, 5-MeO-DMT hydrobromide]", "values": [
      {"measurement": "thermally stable up to (TGA)", "setting": "[1]", "result": 220, "unit": "°C"},
      {"measurement": "dissolution rate", "setting": "[2]", "result": "almost instantaneous"},
      {"measurement": "crystalline form by XRPD after storage", "setting": "[3]", "result": "No change in crystalline form"},
      {"measurement": "solid form after DVS (XRPD post DVS)", "setting": "[4]; salt produced during scale-up", "result": "no change in crystalline form"},
      {"measurement": "hygroscopicity classification", "setting": "[4]; [7]", "result": "non-hygroscopic"},
      {"measurement": "pH after addition of 1 ml media at 37° C.", "setting": "[5]; SNF", "result": 8.13},
      {"measurement": "Observation", "setting": "[5]; SNF, 1 ml media at 37° C.", "result": "Clear solution"},
      {"measurement": "solubility relative to other salts", "setting": "[5]", "result": "high solubility"},
      {"measurement": "pH after addition of 1 ml media at 37° C.", "setting": "[5]; pH 1.2 buffer", "result": 8.09},
      {"measurement": "Observation", "setting": "[5]; pH 1.2 buffer, 1 ml media at 37° C.", "result": "Clear solution"},
      {"measurement": "pH after addition of 1 ml media at 37° C.", "setting": "[5]; pH 4.5 buffer", "result": 7.65},
      {"measurement": "Observation", "setting": "[5]; pH 4.5 buffer, 1 ml media at 37° C.", "result": "Clear solution"},
      {"measurement": "pH after addition of 1 ml media at 37° C.", "setting": "[5]; pH 6.8 buffer", "result": 7.82},
      {"measurement": "Observation", "setting": "[5]; pH 6.8 buffer, 1 ml media at 37° C.", "result": "Clear solution"}
    ]},
    {"compound": "COc1ccc2[nH]cc(CCN(C)C)c2c1", "note": "[Oxalate salt, 5-MeO-DMT oxalate]", "values": [
      {"measurement": "solubility", "setting": "[6]", "result": 19, "unit": "mg/mL"},
      {"measurement": "dissolution rate", "setting": "[2]", "result": "prolonged"},
      {"measurement": "solid form after DVS (XRPD post DVS)", "setting": "[4]", "result": "no change in the crystalline form"},
      {"measurement": "pH after addition of 1.5 ml media at 37° C.", "setting": "[5]; SNF", "result": 2.13},
      {"measurement": "Observation", "setting": "[5]; SNF, 1.5 ml media at 37° C.", "result": "Suspension"},
      {"measurement": "solubility relative to other salts", "setting": "[5]", "result": "lowest solubility"},
      {"measurement": "pH after addition of 1.5 ml media at 37° C.", "setting": "[5]; pH 1.2 buffer", "result": 1.87},
      {"measurement": "Observation", "setting": "[5]; pH 1.2 buffer, 1.5 ml media at 37° C.", "result": "Suspension"},
      {"measurement": "pH after addition of 1.5 ml media at 37° C.", "setting": "[5]; pH 4.5 buffer", "result": 3.05},
      {"measurement": "Observation", "setting": "[5]; pH 4.5 buffer, 1.5 ml media at 37° C.", "result": "Suspension"},
      {"measurement": "pH after addition of 1.5 ml media at 37° C.", "setting": "[5]; pH 6.8 buffer", "result": 3.45},
      {"measurement": "Observation", "setting": "[5]; pH 6.8 buffer, 1.5 ml media at 37° C.", "result": "Suspension"}
    ]},
    {"compound": "COc1ccc2[nH]cc(CCN(C)C)c2c1", "note": "[Tartrate salt, 5-MeO-DMT tartrate]", "values": [
      {"measurement": "onset of decomposition / mass loss (TGA)", "setting": "[1]", "result": 175, "unit": "°C"},
      {"measurement": "thermally stable up to (TGA)", "setting": "[1]", "result": "around 170 °C"},
      {"measurement": "crystalline form by XRPD after storage", "setting": "[3]", "result": "No change in the crystalline form"},
      {"measurement": "total water (moisture) uptake between 0% RH and 90% RH", "setting": "[4]; 25° C", "result": "approximately 3.3 % w/w"},
      {"measurement": "sorption/desorption behaviour (reversibility, hysteresis)", "setting": "[4]; DVS isotherm, 25° C", "result": "reversible and overlap"},
      {"measurement": "solid form after double-cycle DVS experiment (XRPD)", "setting": "[4]; Example 3 Pattern 1 batches", "result": "unchanged"},
      {"measurement": "total reversible mass change between 0-90% RH", "setting": "[4]; Example 3 Pattern 1 batches", "result": 0.6, "unit": "wt. %"},
      {"measurement": "hygroscopicity classification", "setting": "[4]; Example 3 Pattern 1 batches, 0-90% RH", "result": "slightly hygroscopic (Pharmaceuticals that pick up between 0.2% and 2.0% moisture at 80% RH are considered slightly hygroscopic)"},
      {"measurement": "hygroscopicity classification", "setting": "[4]; [7]", "result": "moderately hygroscopic (Pharmaceuticals that pick up between 2.0% and 15.0% moisture at 80% RH are considered moderately hygroscopic)"},
      {"measurement": "hygroscopicity classification", "setting": "[4]; salt screen / scale-up batches, DVS at 25° C, listed as tartrate salt", "result": "moderately hygroscopic (Pharmaceuticals that pick up between 2.0% and 15.0% moisture at 80% RH are considered moderately hygroscopic)"},
      {"measurement": "solid form after DVS (XRPD post DVS)", "setting": "[4]; salt screen batches", "result": "did not undergo any solid form transformation"}
    ]}
  ]
}
